Results reported in ChEMBL document CHEMBL1149454, “Synthesis and in vitro antitubercular activity of some 1-[(4-sub)phenyl]-3-(4-{1-[(pyridine-4-carbonyl)hydrazono]ethyl}phenyl)thiourea” (Bioorg Med Chem Lett, 2006).
Converted amounts (≈) assume the structure as drawn.

Key:
[1] = test system: Mycobacterium tuberculosis; assay: Antibacterial activity against Mycobacterium tuberculosis H37Rv; type: functional
[2] = test system: Vero; assay: Inhibition of mammalian Vero cell viability at 6.25 and 62.5 ug/ml by MTT assay; type: functional, cell-based; conditions: Chlorocebus sabaeus
[3] = test system: Vero; assay: Selectivity index as ratio of IC50 over MIC; type: functional

Structure (SMILES) | MIC [1] [µM] | IC50 [2] [µM] | Selectivity index [3]
C/C(=N/NC(=O)c1ccncc1)c1ccc(N/C(S)=N/c2ccc(C)cc2)cc1 | 1.93 (≈ 0.779 µg/mL) | 155 | 
C/C(=N/NC(=O)c1ccncc1)c1ccc(N/C(S)=N/c2ccc(F)cc2)cc1 | 0.49 (≈ 0.2 µg/mL) | > 153 | >312
COc1ccc(N/C(S)=N\c2ccc(/C(C)=N\NC(=O)c3ccncc3)cc2)cc1 | 0.47 (≈ 0.197 µg/mL) | > 149 | 
CCOc1ccc(N/C(S)=N\c2ccc(/C(C)=N\NC(=O)c3ccncc3)cc2)cc1 | 0.89 (≈ 0.386 µg/mL) | 144 | 
C/C(=N/NC(=O)c1ccncc1)c1ccc(N/C(S)=N/c2ccccc2)cc1 | 4 (≈ 1.56 µg/mL) | 160 | 
C/C(=N/NC(=O)c1ccncc1)c1ccc(N/C(S)=N/c2ccc(Br)cc2)cc1 | 1.66 (≈ 0.778 µg/mL) | 133 | 
NNC(=O)c1ccncc1 [ISONIAZID] | 1.46 (≈ 0.2 µg/mL) | > 455 | 
